The supplement of paper PMC8617591

How the values were obtained:
[1] = test system: Mycobacterium tuberculosis Erdman (autoluminescent); test: GRinf, maximum normalised growth rate inhibition (unitless (-1 to 1)); higher = less effect (negative = killing)
Method: (§1)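 DiaMOND equipotent two-drug combination dose responses against autoluminescent M. tuberculosis Erdman in 8 in vitro models. Read-out is OD600, or luminescence for the intracellular and dormancy models, normalised to untreated wells. Hill-fit Einf, AUC25 and GRinf are potency metrics; FIC50 and FIC90 are Loewe-additivity fractional inhibitory concentrations, given as log2 (negative = synergy). Replicates are averaged.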

[2] = test system: Mycobacterium tuberculosis Erdman (autoluminescent); test: Einf, fitted maximum growth inhibition of combination (fraction); higher = stronger maximal inhibition
Method: as §1

[3] = test system: Mycobacterium tuberculosis Erdman (autoluminescent); test: FIC50 (Loewe) at 50% inhibition (log2); higher = more antagonistic
Method: as §1

[4] = test system: Mycobacterium tuberculosis Erdman (autoluminescent); test: FIC90 (Loewe) at 90% inhibition (log2); higher = more antagonistic
Method: as §1

[5] = test system: Mycobacterium tuberculosis Erdman (autoluminescent); test: AUC25, normalised area under dose response up to IC25 (fraction (0-1)); higher = more potent at low dose
Method: as §1

NNC(=O)c1ccncc1 [isoniazid] + CO[C@H]1/C=C/O[C@@]2(C)Oc3c(C)c(O)c4c(O)c(c(/C=N/N5CCN(C)CC5)c(O)c4c3C2=O)NC(=O)/C(C)=C\C=C\[C@H](C)[C@H](O)[C@@H](C)[C@@H](O)[C@@H](C)[C@H](OC(C)=O)[C@@H]1C [rifampicin]
Conditions	AUC25, [5]	Einf, [2]	FIC50, [3]	FIC90, [4]	GRinf, [1]
in vitro model: acidic pH 5.7, time point: constant (~7 days, model-specific)	0.0799	0.91	0.156	–	-0.381
in vitro model: acidic pH 5.7, time point: terminal (~4-5 doublings, model-specific)	0.0614	0.99	0.263	0.0584	-0.3
in vitro model: intracellular J774, time point: constant = terminal	–	0.966	–	-0.336	-0.212

Conditions	AUC25, [5]	Einf, [2]	FIC50, [3]	FIC90, [4]	GRinf, [1]
in vitro model: butyrate, time point: constant (~7 days, model-specific)	0.1	0.932	0.279	0.359	-0.0416
in vitro model: butyrate, time point: terminal (~4-5 doublings, model-specific)	0.0861	0.973	0.0238	0.0846	-0.0152
in vitro model: cholesterol 0.05 mM, time point: constant (~7 days, model-specific)	0.107	0.655	0.41	–	0.0341
in vitro model: cholesterol 0.05 mM, time point: terminal (~4-5 doublings, model-specific)	0.0769	0.897	0.0977	0.49	-0.0891
in vitro model: cholesterol-high 0.2 mM, time point: constant (~7 days, model-specific)	0.0535	0.91	-0.107	–	-0.249
in vitro model: cholesterol-high 0.2 mM, time point: terminal (~4-5 doublings, model-specific)	0.0593	1	0.355	0.101	-0.696
in vitro model: dormancy (butyrate + nitrate, low O2), time point: constant (~7 days, model-specific)	0.0607	0.931	-0.181	-1.07	0.104
in vitro model: dormancy (butyrate + nitrate, low O2), time point: terminal (~4-5 doublings, model-specific)	0.0631	0.989	-0.539	-0.256	-0.205
in vitro model: standard 7H9 glycerol, time point: constant = terminal	0.0779	0.914	0.445	-0.093	0.103
in vitro model: valerate, time point: constant (~7 days, model-specific)	0.0388	0.866	0.511	–	0.0415
in vitro model: valerate, time point: terminal (~4-5 doublings, model-specific)	0.0262	0.943	0.396	0.119	0.032

CC(C)/N=c1\cc2n(-c3ccc(Cl)cc3)c3ccccc3nc-2cc1Nc1ccc(Cl)cc1 [clofazimine] + O=[N+]([O-])c1cn2c(n1)OC[C@@H](OCc1ccc(OC(F)(F)F)cc1)C2 [pretomanid]
Conditions	AUC25, [5]	Einf, [2]	FIC50, [3]	FIC90, [4]	GRinf, [1]
in vitro model: acidic pH 5.7, time point: constant (~7 days, model-specific)	0.134	0.778	-0.0507	–	-0.287
in vitro model: acidic pH 5.7, time point: terminal (~4-5 doublings, model-specific)	0.108	0.974	-0.167	0.503	-0.285
in vitro model: intracellular J774, time point: constant = terminal	–	0.997	–	0.0803	-0.541

Conditions	AUC25, [5]	Einf, [2]	FIC50, [3]	FIC90, [4]	GRinf, [1]
in vitro model: butyrate, time point: constant (~7 days, model-specific)	0.117	0.967	0.464	1.35	-0.167
in vitro model: butyrate, time point: terminal (~4-5 doublings, model-specific)	0.111	0.995	0.356	1.26	-0.159
in vitro model: cholesterol 0.05 mM, time point: constant (~7 days, model-specific)	0.12	0.704	0.602	–	0.0886
in vitro model: cholesterol 0.05 mM, time point: terminal (~4-5 doublings, model-specific)	0.132	0.919	0.632	0.298	-0.123
in vitro model: cholesterol-high 0.2 mM, time point: constant (~7 days, model-specific)	0.106	0.928	0.591	0.676	-0.208
in vitro model: cholesterol-high 0.2 mM, time point: terminal (~4-5 doublings, model-specific)	0.0964	1	0.631	0.816	-0.69
in vitro model: dormancy (butyrate + nitrate, low O2), time point: constant (~7 days, model-specific)	0.0762	0.892	-0.213	-1.07	0.195
in vitro model: dormancy (butyrate + nitrate, low O2), time point: terminal (~4-5 doublings, model-specific)	0.0498	0.991	-0.405	-0.637	-0.234
in vitro model: standard 7H9 glycerol, time point: constant = terminal	0.116	0.964	-0.193	0.585	-0.211
in vitro model: valerate, time point: constant (~7 days, model-specific)	0.136	0.884	0.762	1.18	-0.0878
in vitro model: valerate, time point: terminal (~4-5 doublings, model-specific)	0.097	0.925	-0.0183	1.26	-0.0377
